Values after ≈ are worked out from the molar mass of the structure shown.
Experiments:
[1] = test system: Botrytis cinerea strain FBc05; experiment: In vitro antifungal activity, mycelial growth inhibition on PDA medium; assay type: cell-based; conditions: for fungal growth inhibition, B. cinerea / inhibition of growth at 50 µg/mL: screening at basal 50 µg/mL, PDA medium, mean ± SD of three determinations; for inhibition at 6.25 µg/mL / inhibition at 25 µg/mL / inhibition at 50 µg/mL / IC50 / inhibition of growth at 50 µg/mL: Botrytis cinerea, FBC05; for inhibition at 6.25 µg/mL / inhibition at 25 µg/mL / inhibition at 50 µg/mL: fungicidal profile, read-out: B. cinerea inhibition; for IC50: log-logistic model, 0–50 µg/mL range, read-out: IC50 against Botrytis cinerea (Bc); for inhibition of growth at 50 µg/mL: read-out: fungal growth inhibition, B. cinerea
[2] = test system: Cerrena unicolor strain no. 139; experiment: as above; assay type: cell-based; conditions: for inhibition of growth at 50 µg/mL / inhibition at 50 µg/mL / IC50: Cerrena unicolor, NO.139; for inhibition of growth at 50 µg/mL: read-out: fungal growth inhibition, C. unicolor; for inhibition at 50 µg/mL: fungicidal profile, read-out: C. unicolor inhibition; for IC50: log-logistic model, 0–50 µg/mL range, read-out: IC50 against Cerrena unicolor (Cu)
Method in brief: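 Compounds in PDA plates (ethanol or DMSO co-solvent, 0.1–1.0% v/v), screened at 50 µg/mL, selected ones at 0–50 µg/mL; 5 mm mycelial plug placed centrally, 22 °C dark until co-solvent control covered (3 d B. cinerea, S. sclerotiorum; 7 d C. unicolor). IC50 from nonlinear dose–response fit, only where growth fell >50%.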

[3] = test system: Sclerotinia sclerotiorum strain FSc10; experiment: as above; assay type: cell-based; conditions: for fungal growth inhibition, S. sclerotiorum / inhibition of growth at 50 µg/mL: screening at basal 50 µg/mL, PDA medium, mean ± SD of three determinations; for inhibition of growth at 50 µg/mL: read-out: fungal growth inhibition, S. sclerotiorum; for IC50: log-logistic model, 0–50 µg/mL range, read-out: IC50 against Sclerotinia sclerotiorum (Ss)
[4] = test system: rapeseed (Brassica napus L. var. napus) seeds; experiment: Phytotest 1: phytotoxicity, seed germination and root growth; assay type: in vivo; conditions: 50 µg/mL; versus water–ethanol 0.5% (v/v) control; <90% inhibition, 90–110% no effect, >110% stimulation
Text: (§1) In the experiments with plants, two aspects were taken under consideration: (1) phytotoxicity, which determined the toxicity of the hydrazide–hydrazones on seed germination and root growth, and (2) study on the behavior of seeds in the presence of the tested hydrazide–hydrazones and pathogens producing laccase (B. cinerea and S. sclerotiorum). The non-coated seeds of Linum usitatissimum, Helianthus annuus, and Brassica napus var. napus were provided by the Institute of Soil Science and Plant Cultivation, National Research Institute in Pulawy, Department of Weed Science and Tillage Systems, and Institute of Technology and Life Sciences–National Research Institute Falenty (Poland). Both phytotests were performed based on direct-contact microbiotests following the protocol recommended by the manufacturer (PhytotestkitTM, MicroBio Tests, Mariakerke, Belgium) with the authors’ modifications.
(§2) The main phytotest equipment (Tigret, Warsaw, Poland) and general methods are described as follows. Test plates (21 × 15.5 × 0.8 cm) provide optimal moisture and enable observation of seed germination and data reading at the end of the test. A single plate is made of polyvinylchloride and composed of both a transparent bottom and a covering part that are stuck together by a set of press buttons. […] Such prepared wet support was covered with a black filter paper that soaked the solution and was applied for further testing.
(§3) In the assay of phytotoxicity (1), the seeds of three dicota plants were used, namely ten seeds of flax or rapeseed and six seeds of sunflower. The seeds were transferred directly on the filter surface by placing them along the line at approximately 1 cm from the ridge at equal distances. Then, the seeds on the filter surface were covered with a covering part and placed in a holder.
(§4) All test plates were put vertically in a special incubator to allow free germination and growth of roots at 25 °C through 5 days in the dark. The test was performed in triplicate for each test plant. The results were expressed as the germination index values (GI, Equation (2)) concerning the plant growth controls in water–ethanol solution for (1). […] The GI was calculated from the formula and categorized as an inhibition for GI values < 90%, as stimulation > 110%, and between 90 and 110% as non-toxic/no effect as proposed in the literature. (2) GI,%=Gs×Ls/Gc×Lc×100% where Gs is seed germination (%), Ls is root elongation (mm) for the test plate, and Gc and Lc are corresponding values for the control plates. Gc was calculated as the proportion of germinated seeds in the test in relation to the number of germinated seeds in the control. The control was the representative number of seeds that germinated on a medium with 0.5% (v/v) of ethanol.

[5] = test system: flax (Linum usitatissimum L.) seeds; experiment: as above; assay type: in vivo; conditions: 50 µg/mL; versus water–ethanol 0.5% (v/v) control; <90% inhibition, 90–110% no effect, >110% stimulation
Text: as §1, §2, §3, §4

[6] = screening at basal 50 µg/mL, PDA medium, mean ± SD of three determinations
[7] = Sclerotinia sclerotiorum, FSC10
[8] = Sclerotinia sclerotiorum, FSC10, fungicidal profile, read-out: S. sclerotiorum inhibition

O=C(N/N=C/c1cc(O)ccc1O)c1ccc(O)cc1 [compound 13]
fungal growth inhibition, B. cinerea [1]: n.o.
fungal growth inhibition, C. unicolor [2, 6]: n.o.
fungal growth inhibition, S. sclerotiorum [3]: n.o.
melting point: 304 °C (dec.)

COc1cc(/C=N/NC(=O)c2ccc(O)cc2)ccc1O [compound 17]
fungal growth inhibition, B. cinerea [1]: n.o.
inhibition of growth at 50 µg/mL [2, 6]: 11.9 ± 0.8%
inhibition of growth at 50 µg/mL [3, 7]: 7.3 ± 2.1%
Germination index (GI), rapeseed, test 1 [4]: 81%

CC(C)(C)c1cccc(/C=N/NC(=O)c2ccc(O)cc2)c1O [compound 18]
inhibition at 6.25 µg/mL [1]: 20.2%
inhibition at 25 µg/mL [1]: 56.4%
inhibition at 50 µg/mL [1]: 64.7%
IC50 [1]: 20 µg/mL (≈ 64 µM)
inhibition of growth at 50 µg/mL [1]: 82.1 ± 3.1%
inhibition at 50 µg/mL [2]: 76.5%
IC50 [2]: 18.3 µg/mL (≈ 58.6 µM)
inhibition of growth at 50 µg/mL [2, 6]: 85.9 ± 2.1%
inhibition at 6.25 µg/mL [3, 8]: 70.6 to 87.6%
inhibition at 12.5 µg/mL [3, 8]: 96.3%
IC50 [3, 7]: 1.8 µg/mL (≈ 5.76 µM)
inhibition of growth at 50 µg/mL [3, 7]: 97.1 ± 1.1%
Germination index (GI), flax, test 1 [5]: stimulating
Germination index (GI), rapeseed, test 1 [4]: 67%

O=C(N/N=C/c1cccc(-c2ccccc2)c1O)c1ccc(O)cc1 [compound 19]
inhibition at 6.25 µg/mL [1]: 30.1%
inhibition at 25 µg/mL [1]: 70.1%
inhibition at 50 µg/mL [1]: 74.1%
IC50 [1]: 13.9 µg/mL (≈ 41.8 µM)
inhibition of growth at 50 µg/mL [1]: 73.5 ± 3.3%
inhibition at 50 µg/mL [2]: 70.5%
IC50 [2]: 20.3 µg/mL (≈ 61.1 µM)
inhibition of growth at 50 µg/mL [2, 6]: 71.4 ± 2.1%
IC50 [3, 7]: 69.9 µg/mL (≈ 210 µM)
inhibition of growth at 50 µg/mL [3, 7]: 50.6 ± 5.5%
Germination index (GI), rapeseed, test 1 [4]: stimulating

Cc1cc(/C=N/NC(=O)c2ccc(O)cc2)c(O)c(CO)c1 [compound 25]
inhibition of growth at 50 µg/mL [1]: 2.8 ± 1.9%
inhibition of growth at 50 µg/mL [2, 6]: 70.1 ± 1.8%
fungal growth inhibition, S. sclerotiorum [3]: n.o.
Germination index (GI), flax, test 1 [5]: stimulated
Germination index (GI), rapeseed, test 1 [4]: stimulated

CC(C)(C)c1cc(/C=N/NC(=O)c2ccc(O)cc2)c(O)c(C(C)(C)C)c1 [compound 27]
inhibition of growth at 50 µg/mL [1]: 23.4 ± 2.7%
IC50 [2]: 2190 µg/mL (≈ 5950 µM)
inhibition of growth at 50 µg/mL [2, 6]: 42.8 ± 2.2%
inhibition at 6.25 µg/mL [3, 8]: 82.9%
inhibition at 50 µg/mL ([3]; Sclerotinia sclerotiorum, FSC10, fungicidal profile, 50 µg/mL, read-out: S. sclerotiorum inhibition): 93.1%
IC50 [3, 7]: 0.5 µg/mL (≈ 1.36 µM)
inhibition of growth at 50 µg/mL [3, 7]: 85.5 ± 3.2%
Germination index (GI), rapeseed, test 1 [4]: 83%

Cc1cc(/C=N/NC(=O)c2ccc(O)cc2)c(O)c(C(C)(C)C)c1 [compound 30]
IC50 [1]: 62.5 µg/mL (≈ 191 µM)
inhibition of growth at 50 µg/mL [1]: 76.2 ± 2.2%
inhibition at 50 µg/mL [2]: 90.5%
IC50 [2]: 13.5 µg/mL (≈ 41.4 µM)
inhibition of growth at 50 µg/mL [2, 6]: 89.8 ± 0.4%
inhibition at 6.25 µg/mL [3, 8]: 70.6 to 87.6%
inhibition at 12.5 µg/mL [3, 8]: 98.7%
IC50 [3, 7]: 0.8 µg/mL (≈ 2.45 µM)
inhibition of growth at 50 µg/mL [3, 7]: 96.8 ± 2.2%

Reference: publication PMC11124341, “4-Hydroxybenzoic Acid-Based Hydrazide–Hydrazones as Potent Growth Inhibition Agents of Laccase-Producing Phytopathogenic Fungi That Are Useful in the Protection of Oilseed Crops” (Molecules, 2024)
